# Patent US6465618B1, “Mitogen activated protein kinase (MAPK) kinase” (Asahi Kasei Kabushikiki Kaisha, priority 1997, dated 2002)
# Experiments:
# MKK7 = experiment: Activation of MKK7 by TNF-α in KB and U937 cells (immune complex kinase assay); assay type: cell-based; settings: KB cells 20 ng/ml, U937 cells 100 ng/ml human TNF-α; 5 to 180 minutes
# Protocol: (§1) KB cells were cultured in Dulbecco's modified Eagles medium (DMEM) containing 10% bovine serum, and the cultured cells were stimulated with 20 ng/ml human TNF-α (manufactured and sold by BECTON DICKINSON AND COMPANY, USA, under the brand of Collaborative Biomedical Products). U937 cells were cultured in RPMI 1640 medium containing 10% fetal bovine serum, and the cultured cells were stimulated with 100 ng/ml human TNF-α. The cells were sampled from each cell culture 5, 15, 30, 60, 120 and 180 minutes after the start of the stimulation to thereby prepare cell extracts. The cell extracts were prepared as follows. The sampled cells were suspended in 0.7 M NaCl solution and washed once with ice-cold HEPES-buffered saline. […]
# (§2) To 200 μl of the cell extract was added 3 μl of an antiserum (anti-MKK7 antiserum and anti-SEK1/MKK4 antiserum were separately used), and a reaction for preparing an immune complex was allowed to proceed while incubating at 4° C. for 1 hour. […] The phosphorylation of c-Jun was detected by autoradiography and used as an index for the activation of MKK7 or SEK1/MKK4 by TNF-α.
# SEK1/MKK4 = experiment: Activation of SEK1/MKK4 by TNF-α in KB and U937 cells (immune complex kinase assay); assay type: cell-based; settings: KB cells 20 ng/ml, U937 cells 100 ng/ml human TNF-α; 5 to 180 minutes
# Protocol: as §1, §2
substance,measurement,setting,value
TNF-α,activation of MKK7 by TNF-α (phosphorylation of c-Jun as index),MKK7,activated
same,activation of SEK1/MKK4 by TNF-α (phosphorylation of c-Jun as index),SEK1/MKK4,did not activate
